Results published in PubChem BioAssay AID1982 (Sanford-Burnham Center for Chemical Genomics, 2009).
Active and inactive are the calls of the source. How the calls were made is not given here.

Assays:
Assay in all cases: kinase panel binding selectivity, selectivity assay, biochemical, KINOMEscan (AID 1982)
[1] = target: STE20-like serine/threonine-protein kinase (Homo sapiens) (UniProt Q9H2G2); settings: KINOMEscan 353-kinase binding panel, qPCR; SLK; at 10 µM; stronger effect = lower value
NDR2 = settings: KINOMEscan 353-kinase binding panel, qPCR, at 10 µM, stronger effect = lower value
RIPK4 = settings: KINOMEscan 353-kinase binding panel, qPCR, at 10 µM, stronger effect = lower value
BMPR2 = settings: KINOMEscan 353-kinase binding panel, qPCR, at 10 µM, stronger effect = lower value
[2] = target: Serine/threonine-protein kinase SIK2 (Homo sapiens) (UniProt Q9H0K1); settings: KINOMEscan 353-kinase binding panel, qPCR; SNF1LK2; at 10 µM; stronger effect = lower value
Sequence of Serine/threonine-protein kinase SIK2 (Homo sapiens) (Q9H0K1 whole entry, looked up): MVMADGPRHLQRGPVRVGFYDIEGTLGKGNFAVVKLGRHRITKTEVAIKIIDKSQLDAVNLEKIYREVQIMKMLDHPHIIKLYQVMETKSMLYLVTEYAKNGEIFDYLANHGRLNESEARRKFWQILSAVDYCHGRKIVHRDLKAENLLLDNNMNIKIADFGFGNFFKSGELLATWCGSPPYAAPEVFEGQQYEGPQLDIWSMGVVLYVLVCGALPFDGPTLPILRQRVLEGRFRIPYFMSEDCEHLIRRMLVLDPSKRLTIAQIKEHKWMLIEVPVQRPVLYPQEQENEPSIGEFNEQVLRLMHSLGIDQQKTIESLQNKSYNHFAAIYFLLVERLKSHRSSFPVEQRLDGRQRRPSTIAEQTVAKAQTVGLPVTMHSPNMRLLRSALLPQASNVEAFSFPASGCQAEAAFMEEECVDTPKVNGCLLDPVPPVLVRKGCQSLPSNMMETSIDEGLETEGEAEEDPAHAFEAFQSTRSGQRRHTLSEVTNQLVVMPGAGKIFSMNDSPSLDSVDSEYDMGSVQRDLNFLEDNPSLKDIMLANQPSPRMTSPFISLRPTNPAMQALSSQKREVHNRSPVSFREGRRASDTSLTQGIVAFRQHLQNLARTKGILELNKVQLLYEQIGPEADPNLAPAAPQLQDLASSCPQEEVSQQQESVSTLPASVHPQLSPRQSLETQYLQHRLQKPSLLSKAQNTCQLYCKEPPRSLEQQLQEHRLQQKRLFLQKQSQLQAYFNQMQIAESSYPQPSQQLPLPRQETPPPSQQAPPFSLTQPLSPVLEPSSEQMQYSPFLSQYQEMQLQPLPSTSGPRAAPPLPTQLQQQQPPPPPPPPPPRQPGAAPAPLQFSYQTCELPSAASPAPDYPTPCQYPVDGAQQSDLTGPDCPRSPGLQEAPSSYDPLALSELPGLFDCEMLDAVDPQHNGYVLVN

CSNK1A1L = settings: KINOMEscan 353-kinase binding panel, qPCR, at 10 µM, stronger effect = lower value
EPHA6 = settings: KINOMEscan 353-kinase binding panel, qPCR, at 10 µM, stronger effect = lower value
[3] = target: MAP/microtubule affinity-regulating kinase 3 (Homo sapiens) (UniProt P27448); settings: KINOMEscan 353-kinase binding panel, qPCR; MARK3; at 10 µM; stronger effect = lower value
PCTK2 = settings: KINOMEscan 353-kinase binding panel, qPCR, at 10 µM, stronger effect = lower value
PIK3CA(E545K) = settings: KINOMEscan 353-kinase binding panel, qPCR, at 10 µM, stronger effect = lower value
[4] = target: Calcium/calmodulin-dependent protein kinase kinase 2 (Homo sapiens) (UniProt Q96RR4); settings: KINOMEscan 353-kinase binding panel, qPCR; CAMKK2; at 10 µM; stronger effect = lower value
TTK = settings: KINOMEscan 353-kinase binding panel, qPCR, at 10 µM, stronger effect = lower value
[5] = target: cAMP-dependent protein kinase catalytic subunit alpha (Homo sapiens) (UniProt P17612); settings: KINOMEscan 353-kinase binding panel, qPCR; PKAC-alpha; at 10 µM; stronger effect = lower value
[6] = target: Tyrosine-protein kinase BTK (Homo sapiens) (UniProt Q06187); settings: KINOMEscan 353-kinase binding panel, qPCR, at 10 µM, stronger effect = lower value
Sequence of Tyrosine-protein kinase BTK (Homo sapiens) (Q06187 whole entry, looked up): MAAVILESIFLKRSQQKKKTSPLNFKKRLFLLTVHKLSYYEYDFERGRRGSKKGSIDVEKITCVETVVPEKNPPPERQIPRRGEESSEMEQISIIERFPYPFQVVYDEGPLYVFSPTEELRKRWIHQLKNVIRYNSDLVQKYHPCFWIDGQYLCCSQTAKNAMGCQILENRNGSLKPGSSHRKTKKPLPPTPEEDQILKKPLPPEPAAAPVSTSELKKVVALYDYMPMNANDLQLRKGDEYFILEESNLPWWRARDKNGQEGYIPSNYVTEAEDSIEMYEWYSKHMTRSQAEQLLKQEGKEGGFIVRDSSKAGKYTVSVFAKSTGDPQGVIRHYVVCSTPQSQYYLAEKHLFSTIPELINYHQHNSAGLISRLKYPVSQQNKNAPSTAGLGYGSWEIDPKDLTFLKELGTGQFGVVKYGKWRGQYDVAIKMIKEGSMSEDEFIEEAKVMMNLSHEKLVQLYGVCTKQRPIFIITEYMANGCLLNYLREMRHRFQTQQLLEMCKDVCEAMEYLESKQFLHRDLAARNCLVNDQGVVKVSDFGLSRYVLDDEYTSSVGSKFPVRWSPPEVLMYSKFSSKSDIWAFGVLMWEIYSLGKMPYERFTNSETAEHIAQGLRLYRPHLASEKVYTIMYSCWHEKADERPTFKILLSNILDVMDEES

[7] = target: Mitogen-activated protein kinase 9 (Homo sapiens) (UniProt P45984); settings: KINOMEscan 353-kinase binding panel, qPCR; JNK2; at 10 µM; stronger effect = lower value
Sequence of Mitogen-activated protein kinase 9 (Homo sapiens) (P45984 whole entry, looked up): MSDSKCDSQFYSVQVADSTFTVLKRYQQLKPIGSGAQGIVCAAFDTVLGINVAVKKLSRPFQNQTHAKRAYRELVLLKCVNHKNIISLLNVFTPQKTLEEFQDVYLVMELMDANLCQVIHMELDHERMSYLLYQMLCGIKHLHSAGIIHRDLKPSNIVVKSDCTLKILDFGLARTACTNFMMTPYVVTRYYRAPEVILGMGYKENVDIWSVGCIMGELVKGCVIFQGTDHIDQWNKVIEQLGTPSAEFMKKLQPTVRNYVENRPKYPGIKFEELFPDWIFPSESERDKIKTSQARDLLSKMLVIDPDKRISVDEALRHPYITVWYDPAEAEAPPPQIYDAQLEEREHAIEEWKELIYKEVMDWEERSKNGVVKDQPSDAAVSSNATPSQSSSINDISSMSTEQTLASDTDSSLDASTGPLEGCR

PCTK3 = settings: KINOMEscan 353-kinase binding panel, qPCR, at 10 µM, stronger effect = lower value
TESK1 = settings: KINOMEscan 353-kinase binding panel, qPCR, at 10 µM, stronger effect = lower value
MAP3K3 = settings: KINOMEscan 353-kinase binding panel, qPCR, at 10 µM, stronger effect = lower value
[8] = target: cGMP-dependent protein kinase 1 (Homo sapiens) (UniProt Q13976); settings: KINOMEscan 353-kinase binding panel, qPCR; PRKG1; at 10 µM; stronger effect = lower value
EPHA3 = settings: KINOMEscan 353-kinase binding panel, qPCR, at 10 µM, stronger effect = lower value
[9] = target: Tyrosine-protein kinase JAK3 (Homo sapiens) (UniProt P52333); settings: KINOMEscan 353-kinase binding panel, qPCR; JAK3(Kin.Dom.2); at 10 µM; stronger effect = lower value
Sequence of Tyrosine-protein kinase JAK3 (Homo sapiens) (P52333 whole entry, looked up): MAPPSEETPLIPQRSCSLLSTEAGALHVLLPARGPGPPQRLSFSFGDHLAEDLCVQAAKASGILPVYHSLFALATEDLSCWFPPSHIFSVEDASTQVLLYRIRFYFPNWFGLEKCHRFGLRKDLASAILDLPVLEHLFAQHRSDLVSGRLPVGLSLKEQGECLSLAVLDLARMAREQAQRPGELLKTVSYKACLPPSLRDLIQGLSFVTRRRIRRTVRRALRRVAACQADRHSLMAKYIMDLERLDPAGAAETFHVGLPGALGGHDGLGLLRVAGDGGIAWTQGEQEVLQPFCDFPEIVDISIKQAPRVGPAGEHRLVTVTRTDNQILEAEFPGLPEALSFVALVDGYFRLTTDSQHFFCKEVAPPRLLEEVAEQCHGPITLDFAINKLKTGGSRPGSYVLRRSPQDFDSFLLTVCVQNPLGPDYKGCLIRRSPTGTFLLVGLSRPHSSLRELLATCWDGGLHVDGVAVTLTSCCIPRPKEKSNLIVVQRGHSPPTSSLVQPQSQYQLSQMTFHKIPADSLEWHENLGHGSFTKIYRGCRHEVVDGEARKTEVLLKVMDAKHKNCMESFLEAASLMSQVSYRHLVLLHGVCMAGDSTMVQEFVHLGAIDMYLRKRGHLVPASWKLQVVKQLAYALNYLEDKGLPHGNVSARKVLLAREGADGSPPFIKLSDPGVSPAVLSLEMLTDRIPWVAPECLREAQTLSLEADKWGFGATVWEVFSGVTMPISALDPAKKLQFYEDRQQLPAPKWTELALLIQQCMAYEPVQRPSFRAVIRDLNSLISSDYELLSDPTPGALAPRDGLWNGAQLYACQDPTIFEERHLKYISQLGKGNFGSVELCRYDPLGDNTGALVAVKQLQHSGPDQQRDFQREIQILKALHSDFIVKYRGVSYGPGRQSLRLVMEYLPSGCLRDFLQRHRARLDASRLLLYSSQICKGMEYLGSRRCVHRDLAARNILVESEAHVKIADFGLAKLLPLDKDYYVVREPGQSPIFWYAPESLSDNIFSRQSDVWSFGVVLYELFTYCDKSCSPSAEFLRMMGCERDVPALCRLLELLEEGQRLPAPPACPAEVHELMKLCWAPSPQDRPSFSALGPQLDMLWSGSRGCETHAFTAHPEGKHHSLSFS

STK36 = settings: KINOMEscan 353-kinase binding panel, qPCR, at 10 µM, stronger effect = lower value
[10] = target: Platelet-derived growth factor receptor beta (Homo sapiens) (UniProt P09619); settings: KINOMEscan 353-kinase binding panel, qPCR; PDGFRB; at 10 µM; stronger effect = lower value
Sequence of Platelet-derived growth factor receptor beta (Homo sapiens) (P09619 whole entry, looked up): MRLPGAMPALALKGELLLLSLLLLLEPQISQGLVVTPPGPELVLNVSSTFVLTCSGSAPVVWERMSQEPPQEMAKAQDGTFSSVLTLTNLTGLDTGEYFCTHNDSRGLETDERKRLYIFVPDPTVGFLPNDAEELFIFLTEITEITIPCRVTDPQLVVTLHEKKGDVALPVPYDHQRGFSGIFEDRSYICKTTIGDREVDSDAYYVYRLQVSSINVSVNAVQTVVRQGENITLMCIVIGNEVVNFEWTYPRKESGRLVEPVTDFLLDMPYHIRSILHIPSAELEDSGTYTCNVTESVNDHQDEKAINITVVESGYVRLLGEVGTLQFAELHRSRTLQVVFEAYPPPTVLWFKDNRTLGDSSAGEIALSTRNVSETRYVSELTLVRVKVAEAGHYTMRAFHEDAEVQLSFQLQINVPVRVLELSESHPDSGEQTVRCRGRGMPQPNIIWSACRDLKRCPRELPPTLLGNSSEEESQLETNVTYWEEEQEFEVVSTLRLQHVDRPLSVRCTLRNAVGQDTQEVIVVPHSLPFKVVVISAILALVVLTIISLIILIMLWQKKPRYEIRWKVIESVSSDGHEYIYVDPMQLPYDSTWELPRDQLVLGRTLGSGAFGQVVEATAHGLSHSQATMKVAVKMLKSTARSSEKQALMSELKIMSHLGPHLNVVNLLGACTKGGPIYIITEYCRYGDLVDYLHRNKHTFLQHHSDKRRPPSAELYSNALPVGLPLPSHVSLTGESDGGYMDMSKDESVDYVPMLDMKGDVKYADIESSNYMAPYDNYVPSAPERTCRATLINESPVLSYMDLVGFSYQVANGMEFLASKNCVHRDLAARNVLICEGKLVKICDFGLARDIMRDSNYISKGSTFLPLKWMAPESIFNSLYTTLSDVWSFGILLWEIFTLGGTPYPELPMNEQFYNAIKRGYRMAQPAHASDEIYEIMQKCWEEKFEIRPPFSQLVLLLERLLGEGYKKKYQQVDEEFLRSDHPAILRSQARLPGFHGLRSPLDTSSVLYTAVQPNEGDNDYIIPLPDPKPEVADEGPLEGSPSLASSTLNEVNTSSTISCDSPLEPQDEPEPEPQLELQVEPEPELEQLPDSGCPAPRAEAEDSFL

[11] = target: Serine/threonine-protein kinase MARK2 (Homo sapiens) (UniProt Q7KZI7); settings: KINOMEscan 353-kinase binding panel, qPCR, at 10 µM, stronger effect = lower value
[12] = target: Tyrosine-protein kinase Fes/Fps (Homo sapiens) (UniProt P07332); settings: KINOMEscan 353-kinase binding panel, qPCR, at 10 µM, stronger effect = lower value
TLK1 = settings: KINOMEscan 353-kinase binding panel, qPCR, at 10 µM, stronger effect = lower value
ABL2 = settings: KINOMEscan 353-kinase binding panel, qPCR, at 10 µM, stronger effect = lower value
[13] = target: Cyclin-dependent kinase 9 (Homo sapiens) (UniProt P50750); settings: KINOMEscan 353-kinase binding panel, qPCR; CDK9; at 10 µM; stronger effect = lower value
[14] = target: Ribosomal protein S6 kinase alpha-3 (Homo sapiens) (UniProt P51812); settings: KINOMEscan 353-kinase binding panel, qPCR; RPS6KA3(Kin.Dom.1); at 10 µM; stronger effect = lower value
MYO3A = settings: KINOMEscan 353-kinase binding panel, qPCR, at 10 µM, stronger effect = lower value
TIE2 = settings: KINOMEscan 353-kinase binding panel, qPCR, at 10 µM, stronger effect = lower value
DCAMKL3 = settings: KINOMEscan 353-kinase binding panel, qPCR, at 10 µM, stronger effect = lower value
[15] = target: Ribosomal protein S6 kinase alpha-5 (Homo sapiens) (UniProt O75582); settings: KINOMEscan 353-kinase binding panel, qPCR, at 10 µM, stronger effect = lower value
Sequence of Ribosomal protein S6 kinase alpha-5 (Homo sapiens) (O75582 whole entry, looked up): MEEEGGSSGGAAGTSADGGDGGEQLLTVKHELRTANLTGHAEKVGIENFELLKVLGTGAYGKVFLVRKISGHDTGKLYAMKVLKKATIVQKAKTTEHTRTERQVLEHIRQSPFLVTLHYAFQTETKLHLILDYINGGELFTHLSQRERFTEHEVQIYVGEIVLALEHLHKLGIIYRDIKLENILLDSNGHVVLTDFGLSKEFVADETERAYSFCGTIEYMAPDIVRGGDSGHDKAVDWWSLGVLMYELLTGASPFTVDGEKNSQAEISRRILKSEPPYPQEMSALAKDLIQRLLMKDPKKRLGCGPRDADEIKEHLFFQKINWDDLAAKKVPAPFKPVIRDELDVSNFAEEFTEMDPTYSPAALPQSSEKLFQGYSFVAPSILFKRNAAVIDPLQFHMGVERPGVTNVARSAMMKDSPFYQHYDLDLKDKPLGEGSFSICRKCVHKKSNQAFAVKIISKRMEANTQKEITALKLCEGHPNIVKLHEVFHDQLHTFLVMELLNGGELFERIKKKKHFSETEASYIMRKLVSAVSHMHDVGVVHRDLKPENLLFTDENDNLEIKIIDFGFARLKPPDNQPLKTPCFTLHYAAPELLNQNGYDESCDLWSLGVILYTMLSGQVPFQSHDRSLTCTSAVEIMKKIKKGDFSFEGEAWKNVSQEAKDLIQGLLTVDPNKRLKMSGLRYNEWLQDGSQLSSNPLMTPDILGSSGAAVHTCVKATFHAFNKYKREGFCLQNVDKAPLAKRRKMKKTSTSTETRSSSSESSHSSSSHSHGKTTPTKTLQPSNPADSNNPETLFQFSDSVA

BIKE = settings: KINOMEscan 353-kinase binding panel, qPCR, at 10 µM, stronger effect = lower value
INSRR = settings: KINOMEscan 353-kinase binding panel, qPCR, at 10 µM, stronger effect = lower value
SRPK2 = settings: KINOMEscan 353-kinase binding panel, qPCR, at 10 µM, stronger effect = lower value

In the case of `Cc1cc2nc(NCCCO)n(CC(=O)c3cc(C(C)(C)C)c(O)c(C(C)(C)C)c3)c2cc1C`, the percent of control binding [1] is reported as 100% (inactive), the percent of control binding (NDR2) is reported as 100% (inactive) and the percent of control binding (RIPK4) is reported as 89% (inactive). For the same compound, the percent of control binding (BMPR2) was 64% (inactive), the percent of control binding [2] was 100% (inactive) and the percent of control binding (CSNK1A1L) was 99% (inactive). The percent of control binding (EPHA6) was 93% (inactive), the percent of control binding [3] was 100% (inactive) and the percent of control binding (PCTK2) was 99% (inactive). The percent of control binding (PIK3CA(E545K)) was 100% (inactive), the percent of control binding [4] was 100% (inactive) and the percent of control binding (TTK) was 100% (inactive). For the same compound, the percent of control binding [5] was 94% (inactive), the percent of control binding [6] was 85% (inactive) and the percent of control binding [7] was 100% (inactive). The percent of control binding (PCTK3) was 82% (inactive), the percent of control binding (TESK1) was 89% (inactive) and the percent of control binding (MAP3K3) was 82% (inactive). The percent of control binding [8] was 100% (inactive), the percent of control binding (EPHA3) was 84% (inactive) and the percent of control binding [9] was 100% (inactive). For the same compound, the percent of control binding (STK36) was 100% (inactive), the percent of control binding [10] was 87% (inactive) and the percent of control binding [11] was 100% (inactive). For the same compound, the percent of control binding [12] was 99% (inactive), the percent of control binding (TLK1) was 30% and the percent of control binding (ABL2) was 85% (inactive). The percent of control binding [13] was 91% (inactive), the percent of control binding [14] was 92% (inactive) and the percent of control binding (MYO3A) was 89% (inactive). The percent of control binding (TIE2) was 100% (inactive), the percent of control binding (DCAMKL3) was 100% (inactive) and the percent of control binding ([15]; RPS6KA5(Kin.Dom.1)) was 100% (inactive). The percent of control binding ([15]; RPS6KA5(Kin.Dom.2)) was 100% (inactive), the percent of control binding (BIKE) was 98% (inactive) and the percent of control binding (INSRR) was 100% (inactive). For the same compound, the percent of control binding (SRPK2) was 100% (inactive).
